Source: paper doi:10.1101/430959v1, “The chemistry and pharmacology of putative synthetic cannabinoid receptor agonist (SCRA) new psychoactive substances (NPS) 5F-PY-PICA, 5F-PY-PINACA, and their analogues” (biorxiv, 2018)
Like-named read-outs stand apart in the source and are kept apart here.

Tests used:
HA-hCB2 [1] = target: T1, HA-hCB2 (Homo sapiens, UniProt P34972); assay: [3H]CP55, […] competition, membranes; type: binding
T1 construct: gene CNR2

human CB2 (AtT20-CB2) [2] = target: T2, human CB2 (AtT20-CB2) (Homo sapiens, UniProt P34972); assay: FLIPR membrane potential assay, AtT20 cells; type: cell-based
T2 construct: gene CNR2; full-length, stably transfected in mouse AtT20 cells
T2 sequence (P34972 whole entry): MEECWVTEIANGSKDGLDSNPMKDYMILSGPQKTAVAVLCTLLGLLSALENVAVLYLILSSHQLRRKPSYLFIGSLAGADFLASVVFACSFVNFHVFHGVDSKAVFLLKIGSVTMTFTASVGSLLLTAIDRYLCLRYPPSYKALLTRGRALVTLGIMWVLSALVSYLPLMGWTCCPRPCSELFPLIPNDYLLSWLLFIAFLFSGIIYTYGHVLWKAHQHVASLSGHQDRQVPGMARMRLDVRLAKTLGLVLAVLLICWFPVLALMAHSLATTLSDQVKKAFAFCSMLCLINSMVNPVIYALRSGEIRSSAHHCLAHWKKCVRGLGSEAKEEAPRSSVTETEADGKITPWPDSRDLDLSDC
Description: FLIPR membrane potential assay, AtT20 cells on human CB2 (AtT20-CB2)

human CB2 (AtT20-CB2) [3] = target: T2, human CB2 (AtT20-CB2); assay: cell-based; details: for Emax: read-out: hCB2 Max (% CP 55,940); for EC50: read-out: hCB2 pEC50 (converted)
Experimental: (§1) Mouse AtT20 neuroblastoma cells stably transfected with human CB1 or human CB2 have been previously described.[43] and were cultured in Dulbecco’s modified Eagle’s medium (DMEM) containing 10% fetal bovine serum (FBS), 100 U penicillin/streptomycin, and 80 μg/mL hygromycin (InvivoGen, San Diego, CA, USA). Cells were passaged at 80% confluency as required. Cells for assays were grown in 75 cm2 flasks and used at 90% confluence. The day before the assay cells were detached from the flask with trypsin/EDTA (Sigma) and resuspended in 10 mL of Leibovitz’s L-15 media supplemented with 1% FBS, 100 U penicillin/streptomycin and 15 mM glucose. The cells were plated in volume of 90 μL in black walled, clear bottomed 96-well microplates (Corning) which had been precoated with poly-L-lysine (Sigma, Australia). Cells were incubated overnight at 37 °C in ambient CO2. Membrane potential was measured using a FLIPR Membrane Potential Assay kit (blue) from Molecular Devices, as described previously.[46] The dye was reconstituted with assay buffer of composition (mM): NaCl 145, HEPES 22, Na2HPO4 0.338, NaHCO3 4.17, KH2PO4 0.441, MgSO4 0.407, MgCl2 0.493, CaCl2 1.26, glucose 5.56 (pH 7.4, osmolarity 315 ± 5). Prior to the assay, cells were loaded with 90 μL/well of the dye solution without removal of the L-15, giving an initial assay volume of 180 μL/well. Plates were then incubated at 37 °C at ambient CO2 for 45 min. Fluorescence was measured using a FlexStation 3 (Molecular Devices) microplate reader with cells excited at a wavelength of 530 nm and emission measured at 565 nm. Baseline readings were taken every 2 s for at least 2 min, at which time either drug or vehicle was added in a volume of 20 μL. The background fluorescence of cells without dye or dye without cells was negligible. Changes in fluorescence were expressed as a percentage of baseline fluorescence after subtraction of the changes produced by vehicle addition. The final concentration of DMSO was 0.1%. Data were analyzed with PRISM (GraphPad Software Inc., San Diego, CA), using four-parameter nonlinear regression to fit concentration-response curves. In all plates, a maximally effective concentration of CP 55,940 was added to allow for normalization between assays.

HA-hCB1 = target: T3, HA-hCB1 (Homo sapiens, UniProt P21554); assay: [3H]SR141716A competition, membranes; type: binding
T3 construct: gene CNR1
T3 sequence (P21554 whole entry): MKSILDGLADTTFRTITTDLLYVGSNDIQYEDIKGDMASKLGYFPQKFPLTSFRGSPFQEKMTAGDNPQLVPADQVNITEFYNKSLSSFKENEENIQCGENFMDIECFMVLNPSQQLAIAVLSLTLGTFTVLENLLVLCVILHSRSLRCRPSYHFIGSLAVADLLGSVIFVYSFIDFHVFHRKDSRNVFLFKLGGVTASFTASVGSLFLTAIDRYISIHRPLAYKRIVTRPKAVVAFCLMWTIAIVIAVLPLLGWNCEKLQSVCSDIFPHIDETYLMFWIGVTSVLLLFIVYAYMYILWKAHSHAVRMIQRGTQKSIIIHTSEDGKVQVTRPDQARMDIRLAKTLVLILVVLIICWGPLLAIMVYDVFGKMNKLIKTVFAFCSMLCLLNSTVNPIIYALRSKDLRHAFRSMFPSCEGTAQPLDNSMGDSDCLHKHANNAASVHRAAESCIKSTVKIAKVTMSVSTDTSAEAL

HA-hCB2 [4] = target: T1, HA-hCB2; assay: biochemical; design: species or system HEK 293; details: read-out: hCB2 pKi (converted)
human CB1 (AtT20-CB1) = target: T4, human CB1 (AtT20-CB1) (Homo sapiens, UniProt P21554); assay: cell-based; details: read-out: % activation
T4 construct: gene CNR1; full-length, stably transfected in mouse AtT20 cells
T4 sequence (P21554 whole entry): as above
Experimental: as §1

T1 sequence (P34972 whole entry): as the sequence (P34972 whole entry) above

SMILES	Ki (HA-hCB2 [1]; read-out: Ki) [nM]	EC50 (human CB2 (AtT20-CB2) [2]; read-out: EC50) [nM]	Emax (human CB2 (AtT20-CB2) [3]) [%]	Ki (HA-hCB1; read-out: pKi (converted)) [nM]	Ki (HA-hCB2 [4]) [nM]	EC50 (human CB2 (AtT20-CB2) [3]) [nM]	activity at 10 µM (human CB1 (AtT20-CB1)) [%]	activity at 10 µM (human CB2 (AtT20-CB2) [3]; read-out: % activation) [%]	Ki (HA-hCB2 [1]) [nM]	EC50 (human CB2 (AtT20-CB2) [2]) [nM]	Ki (HA-hCB1) [nM]
O=C(c1cn(CCCCCF)c2ccccc12)N1CCCCCC1 [compound 8, Azepan-1-yl(1-(5-fluoropentyl)-1H-indol-3-yl)methanone]	102	29	72 ± 3	> 10000							
CCCCCn1cc(C(=O)N2CCCC2)c2ccccc21 [compound 12, (1-Pentyl-1H-indol-3-yl)(pyrrolidin-1-yl)methanone]			54 ± 7	> 10000	3240	234	1 ± 3				
O=C(c1cn(CC2CCCCC2)c2ccccc12)N1CCCC1 [compound 14, (1-(Cyclohexylmethyl)-1H-indol-3-yl)(pyrrolidin-1-yl)methanone]			38 ± 3	> 10000	1070	135					
CN(C)C(=O)c1cn(CCCCCF)c2ccccc12 [compound 10, 1-(5-Fluoropentyl)-N,N-dimethyl-1H-indole-3-carboxamide]	> 10000			> 10000			9 ± 4	11 ± 2			
O=C(c1cn(Cc2ccc(F)cc2)c2ccccc12)N1CCCC1 [compound 13, (1-(4-Fluorobenzyl)-1H-indol-3-yl)(pyrrolidin-1-yl)methanone]			38 ± 13	> 10000	3550	363	12 ± 2				
CCN(CC)C(=O)c1cn(CCCCCF)c2ccccc12 [compound 9, 1-(5-Fluoropentyl)-N,N-diethyl-1H-indole-3-carboxamide]	1020	137	53 ± 4	> 10000			0				
O=C(c1cn(CCCCCF)c2ccccc12)N1CCCCC1 [compound 7, (1-(5-Fluoropentyl)-1H-indol-3-yl)(piperidin-1-yl)methanone]	363	36.3	64 ± 3	> 10000							
O=C(c1cn(CCCCCF)c2ccccc12)N1CCCC1 [compound 5, (1-(5-Fluoropentyl)-1H-indol-3-yl)(pyrrolidin-1-yl)methanone]			50 ± 3						1740	338	> 10000
CCCCn1cc(C(=O)N2CCCC2)c2ccccc21 [compound 11, (1-Butyl-1H-indol-3-yl)(pyrrolidin-1-yl)methanone]	> 10000		63 ± 9	> 10000		468	16 ± 9				
